Measurements as given in US12594276B2, “Inhibitors of human immunodeficiency virus replication” (ViiV Healthcare UK (No.5) Limited, priority 2024, dated 2026).

Experiments:
[1] = test system: recombinant NL4-3 virus (nef section replaced with Renilla luciferase gene) in MT-2 cells; experiment: HIV cell culture assay (antiviral activity, luciferase readout); type: cell-based; conditions: Renilla, NL43, MT-2 cells infected for 4-5 days with recombinant NL4-3 Renilla luciferase virus
Method in brief: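 Read-out: Renilla luciferase (live-cell substrate) in infected MT-2 cells after 4-5 d with serial compound dilutions. Virus from 293T transfection of the proviral clone, titered by luciferase in MT-2. EC50 via median effect equation fit.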

[2] = Compound cytotoxicity, XTT-based colorimetric assay; type: cell-based; conditions: human; uninfected MT2 cells, day 4, XTT; read-out: CC50
Method in brief: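 Uninfected MT2 cells were treated with compound under the same protocol as the antiviral assay. Viability was read on day 4 with an XTT colorimetric assay, from which CC50 values were derived.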

SMILES | EC50 [1] | CC50 at 4 days [2]
CS(=O)(=O)Nc1nn(CCN2CCN(S(C)(=O)=O)CC2)c2c(-n3c([C@H](Cc4cc(F)cc(F)c4)NC(=O)Cn4nc(C5CC5)c5c4C[C@@H]4C[C@H]54)nc4nc(C5CCC(F)(F)CC5)ccc4c3=O)ccc(Cl)c12 (atropisomer, axis not shown; (P)) [Example 382, N-[(1S)-1-[(3P)-3-{4-chloro-3-methanesulfonamido-1-[2-(4-methanesulfonylpiperazin-1-yl)ethyl]-1H-indazol-7-yl}-7-(4,4-difluorocyclohexyl)-4-oxo-3H,4H-pyrido[2,3-d]pyrimidin-2-yl]-2-(3,5-difluorophenyl)ethyl]-2-[(2S,4S)-9-cyclopropyl-7,8-diazatricyclo[4.3.0.0^2,^4]nona-1(6),8-dien-7-yl]acetamide] | 0.037 nM | > 20 nM
Cc1cc(C2CCC(F)(F)CC2)nc2nc([C@H](Cc3cc(F)cc(F)c3)NC(=O)Cn3nc(C4CC4)c4c3C[C@@H]3C[C@H]43)n(-c3ccc(Cl)c4c(NS(C)(=O)=O)nn(CC(=O)N5C[C@@H](C)O[C@@H](C)C5)c34)c(=O)c12 (atropisomer, axis not shown; (P)) [Example 384, N-[(1S)-1-[(3P)-3-(4-chloro-1-{2-[(2R,6S)-2,6-dimethylmorpholin-4-yl]-2-oxoethyl}-3-methanesulfonamido-1H-indazol-7-yl)-7-(4,4-difluorocyclohexyl)-5-methyl-4-oxo-3H,4H-pyrido[2,3-d]pyrimidin-2-yl]-2-(3,5-difluorophenyl)ethyl]-2-[(2S,4S)-9-cyclopropyl-7,8-diazatricyclo[4.3.0.0^2,^4]nona-1(6),8-dien-7-yl]acetamide] | 0.025 nM | > 20 nM
COCCN(CCOC)C(=O)Cn1nc(NS(C)(=O)=O)c2c(Cl)ccc(-n3c([C@H](Cc4cc(F)cc(F)c4)NC(=O)Cn4nc(C5CC5)c5c4C[C@@H]4C[C@H]54)nc4nc(C5CCC(F)(F)CC5)cc(C)c4c3=O)c21 (atropisomer, axis not shown; (P)) [Example 387, 2-[(6P)-4-chloro-7-{2-[(1S)-1-{2-[(2S,4S)-9-cyclopropyl-7,8-diazatricyclo[4.3.0.0^2,^4]nona-1(6),8-dien-7-yl]acetamido}-2-(3,5-difluorophenyl)ethyl]-7-(4,4-difluorocyclohexyl)-5-methyl-4-oxo-3H,4H-pyrido[2,3-d]pyrimidin-3-yl}-3-methanesulfonamido-1H-indazol-1-yl]-N,N-bis(2-methoxyethyl)acetamide] | 0.039 nM | > 20 nM
Cc1cc(C2CCC(F)(F)CC2)nc2nc([C@H](Cc3cc(F)cc(F)c3)NC(=O)Cn3nc(C4CC4)c4c3C[C@@H]3C[C@H]43)n(-c3ccc(Cl)c4c(NS(C)(=O)=O)nn(CC(=O)NCCOC(C)C)c34)c(=O)c12 (atropisomer, axis not shown; (P)) [Example 393, N-[(1S)-1-[(3P)-3-[4-chloro-3-methanesulfonamido-1-({[2-(propan-2-yloxy)ethyl]carbamoyl}methyl)-1H-indazol-7-yl]-7-(4,4-difluorocyclohexyl)-5-methyl-4-oxo-3H,4H-pyrido[2,3-d]pyrimidin-2-yl]-2-(3,5-difluorophenyl)ethyl]-2-[(2S,4S)-9-cyclopropyl-7,8-diazatricyclo[4.3.0.0^2,^4]nona-1(6),8-dien-7-yl]acetamide] | 0.035 nM | > 20 nM
CO[C@@H](C)CNC(=O)Cn1nc(NS(C)(=O)=O)c2c(Cl)ccc(-n3c([C@H](Cc4cc(F)cc(F)c4)NC(=O)Cn4nc(C5CC5)c5c4C[C@@H]4C[C@H]54)nc4nc(C5CCC(F)(F)CC5)cc(C)c4c3=O)c21 (atropisomer, axis not shown; (P)) [Example 395, N-[(1S)-1-[(3P)-3-[4-chloro-3-methanesulfonamido-1-({[(2S)-2-methoxypropyl]carbamoyl}methyl)-1H-indazol-7-yl]-7-(4,4-difluorocyclohexyl)-5-methyl-4-oxo-3H,4H-pyrido[2,3-d]pyrimidin-2-yl]-2-(3,5-difluorophenyl)ethyl]-2-[(2S,4S)-9-cyclopropyl-7,8-diazatricyclo[4.3.0.0^2,^4]nona-1(6),8-dien-7-yl]acetamide] | 0.034 nM | > 20 nM
Cc1cc(C2CCC(F)(F)CC2)nc2nc([C@H](Cc3cc(F)cc(F)c3)NC(=O)Cn3nc(C4CC4)c4c3C[C@@H]3C[C@H]43)n(-c3ccc(Cl)c4c(NS(C)(=O)=O)nn(CC(=O)N5CC(C)(C)OC(C)(C)C5)c34)c(=O)c12 (atropisomer, axis not shown; (P)) [Example 396, N-[(1S)-1-[(3P)-3-{4-chloro-3-methanesulfonamido-1-[2-oxo-2-(2,2,6,6-tetramethylmorpholin-4-yl)ethyl]-1H-indazol-7-yl}-7-(4,4-difluorocyclohexyl)-5-methyl-4-oxo-3H,4H-pyrido[2,3-d]pyrimidin-2-yl]-2-(3,5-difluorophenyl)ethyl]-2-[(2S,4S)-9-cyclopropyl-7,8-diazatricyclo[4.3.0.0^2,^4]nona-1(6),8-dien-7-yl]acetamide] | 0.02 nM | > 20 nM
COCCN(CCOC)C(=O)Cn1nc(NS(C)(=O)=O)c2c(Cl)ccc(-n3c([C@H](Cc4cc(F)cc(F)c4)NC(=O)Cn4nc(C(F)F)c5c4C(F)(F)[C@@H]4C[C@H]54)nc4nc(C5CCC(F)(F)CC5)cc(C)c4c3=O)c21 (atropisomer, axis not shown; (P)) [Example 401, 2-[(6P)-4-chloro-7-[7-(4,4-difluorocyclohexyl)-2-[(1S)-1-{2-[(2S,4R)-9-(difluoromethyl)-5,5-difluoro-7,8-diazatricyclo[4.3.0.02, 4]nona-1(6),8-dien-7-yl]acetamido}-2-(3,5-difluorophenyl)ethyl]-5-methyl-4-oxo-3H,4H-pyrido[2,3-d]pyrimidin-3-yl]-3-methanesulfonamido-1H-indazol-1-yl]-N,N-bis(2-methoxyethyl)acetamide] | 0.012 nM | > 20 nM
Cc1cc(C2CCC(F)(F)CC2)nc2nc([C@H](Cc3cc(F)cc(F)c3)NC(=O)Cn3nc(C(F)F)c4c3C(F)(F)[C@@H]3C[C@H]43)n(-c3ccc(Cl)c4c(NS(C)(=O)=O)nn(CC(=O)N(C)[C@@H]5CCOC5)c34)c(=O)c12 (atropisomer, axis not shown; (P)) [Example 405, N-[(1S)-1-[(3P)-3-[4-chloro-3-methanesulfonamido-1-({methyl[(3R)-oxolan-3-yl]carbamoyl}methyl)-1H-indazol-7-yl]-7-(4,4-difluorocyclohexyl)-5-methyl-4-oxo-3H,4H-pyrido[2,3-d]pyrimidin-2-yl]-2-(3,5-difluorophenyl)ethyl]-2-[(2S,4R)-9-(difluoromethyl)-5,5-difluoro-7,8-diazatricyclo[4.3.0.0^2,^4]nona-1(6),8-dien-7-yl]acetamide] | 0.034 nM | > 20 nM
Cc1cc(C2CCC(F)(F)CC2)nc2nc([C@H](Cc3cc(F)cc(F)c3)NC(=O)Cn3nc(C(F)F)c4c3C(F)(F)[C@@H]3C[C@H]43)n(-c3ccc(Cl)c4c(NS(C)(=O)=O)nn(CC(=O)N5C[C@H]6C[C@H]6C5)c34)c(=O)c12 (atropisomer, axis not shown; (P)) [Example 409, N-[(1S)-1-[(3P)-3-(1-{2-[(1R,5S)-3-azabicyclo[3.1.0]hexan-3-yl]-2-oxoethyl}-4-chloro-3-methanesulfonamido-1H-indazol-7-yl)-7-(4,4-difluorocyclohexyl)-5-methyl-4-oxo-3H,4H-pyrido[2,3-d]pyrimidin-2-yl]-2-(3,5-difluorophenyl)ethyl]-2-[(2S,4R)-9-(difluoromethyl)-5,5-difluoro-7,8-diazatricyclo[4.3.0.0^2,^4]nona-1(6),8-dien-7-yl]acetamide] | 0.014 nM | > 20 nM
COCCNc1cc(C2CCC(F)(F)CC2)nc2nc([C@H](Cc3cc(F)cc(F)c3)NC(=O)Cn3nc(C(F)F)c4c3C(F)(F)[C@@H]3C[C@H]43)n(-c3ccc(Cl)c4c(NS(C)(=O)=O)nn(CCN5CCC(F)(F)CC5)c34)c(=O)c12 (atropisomer, axis not shown; (P)) [Example 413, N-[(1S)-1-[(3P)-3-{4-chloro-1-[2-(4,4-difluoropiperidin-1-yl)ethyl]-3-methanesulfonamido-1H-indazol-7-yl}-7-(4,4-difluorocyclohexyl)-5-[(2-methoxyethyl)amino]-4-oxo-3H,4H-pyrido[2,3-d]pyrimidin-2-yl]-2-(3,5-difluorophenyl)ethyl]-2-[(2S,4R)-9-(difluoromethyl)-5,5-difluoro-7,8-diazatricyclo[4.3.0.0^2,^4]nona-1(6),8-dien-7-yl]acetamide] | 0.013 nM | > 20 nM
COCCNc1cc(C2CCC(F)(F)CC2)nc2nc([C@H](Cc3cc(F)cc(F)c3)NC(=O)Cn3nc(C(F)F)c4c3C(F)(F)[C@@H]3C[C@H]43)n(-c3ccc(Cl)c4c(NS(C)(=O)=O)nn(CCN5C[C@H](F)C[C@H](F)C5)c34)c(=O)c12 (atropisomer, axis not shown; (P)) [Example 414, N-[(1S)-1-[(3P)-3-(4-chloro-1-{2-[(3R,5S)-3,5-difluoropiperidin-1-yl]ethyl}-3-methanesulfonamido-1H-indazol-7-yl)-7-(4,4-difluorocyclohexyl)-5-[(2-methoxyethyl)amino]-4-oxo-3H,4H-pyrido[2,3-d]pyrimidin-2-yl]-2-(3,5-difluorophenyl)ethyl]-2-[(2S,4R)-9-(difluoromethyl)-5,5-difluoro-7,8-diazatricyclo[4.3.0.0^2,^4]nona-1(6),8-dien-7-yl]acetamide] | 0.01 nM | > 20 nM
